{"source": "patent US20130142819A1", "about": "“LEISHMANICIDAL FORMULATION AND ITS USE” (priority 2010, published 2013)", "assay_in_all_cases": "Leishmanicidal activity, MTT viability assay, promastigotes", "format_in_all_cases": "cell-based", "settings_in_all_cases": "50 μg/mL; average ± standard deviation", "key": {"[1]": {"test_system": "stationary phase promastigotes of L. chagasi", "experimental": "(§1) In a cell culture plate of 96 wells (Nunc, Nunclon®), 4×10^5 promastigote and amastigote-like forms of species Leishmania amazonensis, L. major and L. chagasi were incubated with 25 to 200 μg/mL of the aqueous extract of the fungus in RPMI-PR medium for a final volume of 100 μL, for 24 h at 25° C. Then it was added 50 uL of MTT reagent (Thiazoly Blue Tetrazolium Bromide 98%; in stock concentration of 5 mg/mL) and the plate was incubated for 4 hours at 25° C. The cells were analyzed on a microscope to verify the formation of formazan crystals. Shortly after it was added 60 μL of a SDS 10%/HCL 0.1 M solution to solubilize formazan crystals and the plate was incubated for 18 h. The absorbance readings were then performed using a spectrophotometer at a wavelength of 570 nanometers (nm) (see FIGS. 1 and 2; Table 1 and 2).\n(§2) Through the absorbance readings collected in experiments, Tables 1 and 2 were generated to represent the percentage of leishmanicidal activity of aqueous extract against the three Leishmania species tested in two manners. The calculation of the percentage of death of the parasites was based in the formula below, using the absorbance readings: […]\n(§3) The experiment was conducted by the cellular viability protocol by impregnating the MTT reagent and the concentration of 50 μg/mL of the aqueous extract of the fungus and the purified fractions were used. […]"}, "[2]": {"test_system": "stationary phase promastigotes of L. major", "experimental": "as §1, §2, §3"}, "[3]": {"test_system": "stationary phase promastigotes of L. amazonensis", "experimental": "as §1, §2, §3"}}}
{"smiles": "C[C@@H]1[C@H](O)[C@@H](C)/C=C/C=C/C=C/C=C/C=C/C=C/C=C/[C@H](O[C@@H]2O[C@H](C)[C@@H](O)[C@H](N)[C@@H]2O)C[C@@H]2O[C@](O)(C[C@@H](O)C[C@@H](O)[C@H](O)CC[C@@H](O)C[C@@H](O)CC(=O)O[C@H]1C)C[C@H](O)[C@H]2C(=O)O", "note": "[Amphotericin B, amphotericin B]", "values": [{"measurement": "Average percentage of death of stationary phase promastigote forms, L. chagasi", "setting": "[1]", "result": "35.12 ± 2.61", "unit": "%"}, {"measurement": "Average percentage of death of stationary phase promastigote forms, L. major", "setting": "[2]", "result": "42.51 ± 2.00", "unit": "%"}, {"measurement": "Average percentage of death of stationary phase promastigote forms, L. amazonensis", "setting": "[3]", "result": "40.06 ± 1.17", "unit": "%"}]}
